From patent publication US11844853B2, “Antiperspirant composition” (Conopco, Inc., priority 2018, dated 2023)

Assay: Percentage flow rate reduction (PFRR) of artificial sweat across a membrane coated with antiperspirant active
Details: metal deposited 0.004 g/membrane; 12 micron pore size, 50 mm dia.; flow of artificial sweat under 60 cm constant water bar pressure (5.9 kPa)
Method: The above solutions were deposited on a membrane as give below such that the metal deposited was 0.004 g/membrane.
Whatman cellulose nitrate membranes (AE 100, 12 micron nominal pore size, 50 mm dia.) were coated with required volume of desired % w/v or w/w solution of ACH in water. The coated membranes were taken out and kept in air for 30 mins. Then the membranes were put into a closed chamber having 250 ml 10% (v/v) ammoniacal solution inside to generate an ammoniacal blanketing at 25-30° C. temperature, for 4 hrs to neutralize the active. Then the neutralized membranes were kept in air for 6 hrs to remove excess moisture and were used for flow rate assessment. The membranes were fitted in the Millipore filtration set up and flow rate of artificial sweat under 60 cm constant water bar pressure was measured. The selected water bar pressure corresponds to 5.9 kPa, which is reported as the average secretory pressure of the sweat glands (avg.SPSG)
Whatman cellulose nitrate membranes (AE 100, 12 micron nominal pore size, 50 mm dia.) were coated with required volume of desired % w/v or w/w solution of zinc complex in ethanol. The coated membranes were taken out and kept in air for 15 mins. […]
The percentage flow rate reduction was calculated using the equation:

| Substance | Avg % PFRR N = 8 [%] |
| --- | --- |
| Zinc lysine complex [Example C, Zinc lysine complex [Zn (lysine)2. Cl2.2H2O]] | 10 |
| Aluminium chlorohydrate [Example A] | 66 |
